Reference: US8278442B2, “Bicyclic aryl and heteroaryl compounds for the treatment of metabolic disorders” (Prosidion Limited, priority 2007, dated 2012)

Tests used:
mu-opioid receptor [1] = biological target: T1, mu-opioid receptor (Homo sapiens, UniProt P35372); test: Competition binding assay (3H-DAMGO); conditions: mu-opioid receptor expressing membranes, 0.5 nM 3H-DAMGO
Experimental: Competition Binding Assays
Mu-, kappa- or delta-opioid receptor expressing membranes (5-15 μg/well) were suspended in 50 mM Tris buffer pH 7.6 containing 5 mM MgCl2 and were incubated on 96-well plates with test compound or vehicle (1% DMSO) and either 0.5 nM ^3H-DAMGO, 0.8 nM ^3H—U-69,595 or 1.1 nM ^3H-DPDPE respectively in a total volume of 200 μL for 90 min at rt (22° C.). The contents of the wells were filtered and washed 5 times with chilled 50 mM Tris buffer pH 7.6 through H2O pre-soaked GF/B filters using a Perkin Elmer Filtermate. The filters were dried and upon application of scintillant the bound radioactive content for each well determined by scintillation counting in a Wallac TriLux Microbeta scintillation counter. Non-specific binding was determined in the presence of 2 μM Naloxone. IC50 values were determined by plotting log concentration test compound against specific binding and subsequent Ki values calculated.

mu-opioid receptor [2] = biological target: T1, mu-opioid receptor; test: GTPγS functional binding assay; format: biochemical; conditions: mu-opioid receptor expressing membranes, agonist DAMGO 10 nM, 35S-GTPγS binding
Experimental: GTPγS Functional Binding Assays
Mu-, kappa- or delta-opioid receptor expressing membranes (5-20 μg/well) were suspended in 50 mM HEPES buffer pH 7.6 containing 3 mM MgCl2, 120 mM NaCl, 150 pM GTPγS, 10 μg/mL saponin and 3 μM GDP (μ-opioid receptor assay) or 5 μM GDP (κ- and δ-opioid receptor assay) and were pre-incubated on 96-well plates with test compound or vehicle (1% DMSO) in a total volume of 160 μL for 10 min at rt (22° C.). Specific agonists DAMGO (10 nM final concentration), U-50,488 (30 nM final concentration) or SNC-80 (10 nM final concentration) were added respectively and the plates pre-incubated for a further 15 min at rt (22° C.) ^35S-GTPγS at a final concentration in the assay of 150 pM was then added to provide a total volume per well of 200 μL and the plates incubated for 45 min at 30° C. The contents of the wells were filtered and washed 5 times with chilled 50 mM Tris buffer pH 7.6 through H2O pre-soaked GF/B filters using a Perkin Elmer Filtermate. The filters were dried and upon application of scintillant the bound radioactive content for each well determined by scintillation counting in a Wallac TriLux Microbeta scintillation counter. Non-specific binding was determined in the presence of 10 μM GTPγS. IC50 values were determined by plotting log concentration test compound against percentage increase over non-stimulated ^35S-GTPγS binding.

T1 sequence (P35372 whole entry, species assumed): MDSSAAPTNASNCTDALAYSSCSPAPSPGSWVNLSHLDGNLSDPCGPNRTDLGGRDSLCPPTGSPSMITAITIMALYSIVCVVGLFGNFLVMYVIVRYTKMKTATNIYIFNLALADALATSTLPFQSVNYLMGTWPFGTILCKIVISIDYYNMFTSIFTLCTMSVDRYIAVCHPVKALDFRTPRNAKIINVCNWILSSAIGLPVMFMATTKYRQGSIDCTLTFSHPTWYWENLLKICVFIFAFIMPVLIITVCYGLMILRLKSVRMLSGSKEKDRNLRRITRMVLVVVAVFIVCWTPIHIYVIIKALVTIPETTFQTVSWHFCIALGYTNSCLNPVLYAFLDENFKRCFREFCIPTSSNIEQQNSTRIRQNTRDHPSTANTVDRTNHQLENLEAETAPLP

NC(=O)c1ccc(Oc2ccc(CNC3CCOCC3)c3ccccc23)nc1 [Example 16, 6-{4-[(Tetrahydropyran-4-ylamino)methyl]naphthalen-1-yloxy}nicotinamide]
Ki (mu-opioid receptor [1]): < 100 nM | IC50 (mu-opioid receptor [2]): < 100 nM
